In patent US20060258631A1, “Methods of using fatty-acid esters of estrogens and serotonin reuptake inhibiting compounds for reducing the body weight of a mammal and compositions containing the same” (Oleoyl-Estrone Development SL, priority 2004, published 2006):
Values joined by “and” are separate entries in the source; they are usually repeats but may differ in a detail not shown here. Equal entries are not always repeated. “Also recorded” adds a separate entry of the source.

How the values were obtained:
[1] = Body weight and lipid change of overweight rats treated 10 days by daily gavage; type: in vivo; conditions: overweight male Wistar rats, 10-day daily gavage; oleoyl-estrone 10 micromol/kg, dexfenfluramine 3 mg/kg, sibutramine 5 mg/kg
From the text: (§1) Forty-five day-old male Wistar rats were used. The rats were kept in collective cages in a light cycle, temperature, and humidity-controlled environment. They were fed tap water and a self-selected cafeteria diet (containing an excess of tasty, energy-dense foods, as well as standard chow) for 45 additional days. Then they were subjected to a 5-day diet adaptation period, in which they had rat chow as the sole food available. At this point, the rats weighed 350-370 g and had plenty of body fat. Maintaining the availability of rat chow (daily consumption by the group was recorded) and tap water, body weight was recorded daily. The animals were given a daily gavage of either 0.2 mL of sunflower oil or the same vehicle containing oleoyl-estrone.
(§2) Six groups of animals were used: • a) controls, receiving a daily gavage of 0.2 mL of sunflower oil; • b) oleoyl-estrone, receiving the same daily gavage of 0.2 mL of sunflower oil, but containing oleoyl-estrone, to a a daily dose of 10 micromol per kg of body weight; • c) dexfenfluramine: receiving the same daily gavage of 0.2 mL of sunflower oil, and a second gavage of 0.2 mL of dexfenfluramine in water, to a a daily dose of 3 mg per kg of body weight; • d) dexfenfluramine plus oleoyl-estrone: receiving both gavages, 0.2 mL of oil and oleoyl-estrone (to a daily dose of 10 micromol per kg of body weight) and 0.2 mL of water and dexfenfluramine, to a daily dose of 3 mg per kg of body weight; • e) sibutramine: receiving the same daily gavage of 0.2 mL of sunflower oil, and a second gavage of 0.2 mL of sibutramine in water, to a a daily dose of 5 mg per kg of body weight; • f) sibutramine plus oleoyl-estrone: receiving both gavages, 0.2 mL of oil and oleoyl-estrone (to a daily dose of 10 micromol per kg of body weight) and 0.2 mL of water and sibutramine, to a daily dose of 5 mg per kg of body weight.
(§3) The treatment was maintained up to 10 days, when the animals were killed by decapitation, and their blood and carcass were used for analyses. Plasma was separated from the blood. The plasma was preserved frozen until its utilization for the estimation of glucose, cholesterol, triacylglycerol, free fatty acids, and insulin levels using standard methods, as well as for the estimation of alanine- and aspartate-transaminase activities.
The rat corpses, partially exsanguinated were dissected. The stomach and intestines were cleaned of their contents. The remaining carcass was sealed into polyethylene bags, autoclaved and blended to a fine paste. This paste was analysed for lipid content by extraction using trichloromethane/methanol and corrected by its water content. Lipid content in the paste was referred to whole in vivo body weight for comparison.
(§4) Samples of the rat paste were dried and used for the estimation of their caloric content using a bomb calorimeter. The initial values for lipid content were calculated from the corresponding in vivo body weights at the beginning of the experiment and applying to all the animals the mean percentage of lipid content found in the control (vehicle only) group at the end of the experiment. This same procedure was used to determine the overall energy content of the carcasses by using the experimentally found energy content of the rats in the control group. Likewise, the energy content of the pellet diet was also measured and used to estimate the energy intake of the animals.

[2] = Energy balance (carcass energy, food/energy intake, energy expenditure) of overweight rats treated 10 days; type: in vivo, male Wistar rats; conditions: for carcass energy content (ranking among groups): end of 10-day treatment, bomb calorimeter; for decrease in food consumption / loss of energy from the internal stores / net contribution of internal stores to energy expenditure: overweight male Wistar rats, 10-day daily gavage, same doses
From the text: as §1, §2, §3, §4
Energy expenditure (Ee) was estimated as the difference between energy intake (Ei) and accrual (Ea), since: Ei=Ee±Ea.

[3] = Plasma composition of rats after 10 days of treatment; type: in vivo, male Wistar rats; conditions: after 10-day treatment, compared with other groups
From the text: as §1, with “oleoyl-estrone. […]” for “oleoyl-estrone.”

Compound	loss of lipid (body lipid) [1] [%]	carcass energy content (ranking among groups) [2]	decrease in food consumption [2] [%]	loss of energy from the internal stores [2] [kJ]	plasma triacylglycerol levels [3]	loss of body weight [1]	net contribution of internal stores to energy expenditure [2] [%]
CCCCCCCC/C=C\CCCCCCCC(=O)Oc1ccc2c(c1)CC[C@@H]1[C@@H]2CC[C@]2(C)C(=O)CC[C@@H]12 [oleoyl-estrone, [3(Z)]-3-[(1-oxo-9-octadecenyl)oxy]-estra-1,3,5(10)-trien-17-one]	13	smaller	32	357	lower; also recorded: decreased	–	–
CCN[C@@H](C)Cc1cccc(C(F)(F)F)c1 [dexfenfluramine]	~16	–	23	546	–	3% and 2.6%	~20
CC(C)CC(N(C)C)C1(c2ccc(Cl)cc2)CCC1 (stereo not shown) [sibutramine]	15	smaller	26	403	–	4% and 3.8%	~20
